# Entries after “also recorded” stand apart in the source; their conditions may differ. Starred links: 1 amine or outer side, 2 acyl side, 3 side chain; linkers in the order of their positions; H or OH if unused. Positions of bridges follow the written chain, without caps; N, C: chain ends. Non-standard residues stand in square brackets, D forms with d. Residues, ends and D or L forms follow the SMILES beside them. *: point of attachment. X1 = COCCOCCOCCOCCOCCOCCOCCOCCOCCOCCOCC(=O)N[C@@H](CCCCN*)C(=O)NCCOCCOCCOCCOCCOCCOCCOCCOCCOCCOCCOCCOCCC(=O)NCCOCCOCCOCCOCCOCCOCCOCCOCCOCCOCCOCCOCCC(=O)N[C@@H](CCCCNC(=O)CCN1C(=O)CC(C)C1=O)C(N)=O; 2Nal = N[C@@H](Cc1ccc2ccccc2c1)C(=O)O; Gly(cPent) = N[C@H](C(=O)O)C1CCCC1; Agb = N=C(N)NCC[C@H](N)C(=O)O; hCys = N[C@@H](CCS)C(=O)O; CH2 = C([*:1])[*:2]
# How the values were obtained:
# [1] = system: C57BL/6 mice, ischemic limb blood flow; assay: Blood flow improvement measurement tests (femoral artery/vein ligation and excision, laser Doppler); assay type: in vivo, mouse; settings: for blood flow AUC, % of vehicle group mean: blood flow AUC from beginning to end of measurement, ratio to vehicle-treated group mean; for %, ischemia/nonischemia (blood flow on the last day of measurement): mean ± standard error, ratio of ischemic limb flow to non-ischemic limb flow
# Text: Six to seven-week-old C57BL/6 mice were purchased from Charles River Laboratories Japan Inc., and acclimated over six days by feeding with a FR-2 solid diet (produced by Funabashi Farm Co., Ltd.). The rearing facility switched between light and dark modes in a 12-hour cycle with light turning on at 7 a.m. and turning off at 7 p.m. Under isoflurane inhalation anaesthesia, the left thighs of the mice were dissected, and the superficial femoral arteries and veins (from just below the deep femoral arteries to the popliteal artery and vein) were ligated and excised. […] Five mice were used for each treatment group.
# Blood flows were measured in ischemic (left) and non-ischemic (right) limbs using a laser Doppler perfusion imager (PeriScan PIM III, Moor LD12-HR). The improvement of blood flow was evaluated by the ratio of ischemic limb flow to non-ischemic limb flow. […] In addition, blood flow AUC was calculated to determine the ratio (%) of the mean value of the test substance-treated group to the mean value of the vehicle-treated group.
# [2] = Serum stability test, mouse serum; assay type: in vitro ADME; settings: for remaining at 4 h, 20 μM: male, BALB/c CrSlc, mouse, mouse serum, residual ratio: IS ratio at 4 hours relative to 0 hours, 37° C.; for serum stability (in words): statement covers mouse, monkey and human serum, 4 hours
# Text: (§1) • Mouse serum (BALB/c CrSlc, male, Japan SLC, Inc.) • Monkey serum (cynomolgus monkey, male, Japan SLC, Inc.) • Human serum (Caucasian, pool of 5 males and 5 females, KAC Co., Ltd.) • Phenacetin (Nacalai Tesque, Inc.) • Niflumic acid (Nacalai Tesque, Inc.) • Furosemide (Nacalai Tesque, Inc.) • Acetonitrile (FUJIFILM Wako Pure Chemical Corporation) • Methanol (FUJIFILM Wako Pure Chemical Corporation) • Formic acid (FUJIFILM Wako Pure Chemical Corporation) • Dimethyl sulfoxide (DMSO) (FUJIFILM Wako Pure Chemical Corporation)
# (§2) Solutions of Phenacetin, niflumic acid, and furosemide were prepared in DMSO at 10 μg/ml, 150 μg/ml, and 200 μg/ml, respectively. 10 μg/ml of phenacetin in DMSO, 150 μg/ml of niflumic acid in DMSO, and 200 μg/ml of furosemide in DMSO were dissolved in a mixture of […]/methanol (75/25, v/v) (final concentrations: phenacetin; 1 ng/mL, niflumic acid: 15 ng/mL, and furosemide 20 ng/mL), and formic acid was added to the prepared test solution (final concentration: 1% (v/v)) to prepare a formic acid-containing IS solution.
# (§3) The test substances were prepared in DMSO to a concentration of 10 mM each. Further, the solution was diluted with DMSO to a concentration of 2 mM to make a test substance solution.
# (§4) Each serum was preincubated at 37° C. for 5 minutes, and then the test substance solution was added to a final concentration of 20 μM to initiate the reaction. The test substance-added serum was incubated at 37° C. At 0 and 4 hours after the start of the reaction, a portion of the serum was taken out and added to the formic acid-containing IS solution to stop the reaction, which was used as a measurement sample.
# (§5) The test substance and IS (phenacetin, niflumic acid, and furosemide) in the measurement sample were measured by LC-MS/MS, and the peak area ratio (IS ratio) of the test substance to IS (any of phenacetin, niflumic acid, and furosemide) was calculated.
# (§6) The percentage of the IS ratio at 4 hours after the start of the reaction relative to that at 0 hours after the start of the reaction was used as a residual ratio to evaluate serum stability.
# [3] = Serum stability test, monkey serum; assay type: in vitro ADME, cynomolgus monkey; settings: male, residual ratio: IS ratio at 4 hours relative to 0 hours, 37° C.
# Text: as §1, §2, §3, §4, §5, §6
# [4] = Serum stability test, human serum; assay type: in vitro ADME; settings: both sexes, residual ratio: IS ratio at 4 hours relative to 0 hours, 37° C.
# Text: as §1, §2, §3, §4, §5, §6
smiles,measurement,setting,value
COCCOCCOCCOCCOCCOCCOCCOCCOCCOCCOCC(=O)N[C@@H](CCCCNC(=O)[C@H](CC(=O)O)NC(=O)[C@H](CC(=O)O)NC(=O)CNC(=O)CNC(=O)CNC(=O)CNC(=O)[C@@H]1CSCC(=O)N[C@@H](Cc2ccc3ccccc3c2)C(=O)N[C@H](CCCNC(=N)N)C(=O)N[C@H]2CCSSCC[C@H](NC(=O)[C@H](Cc3c[nH]c4ccccc34)NC(=O)[C@@H](CC(=O)O)NC(=O)[C@H](CCCNC(=N)N)NC(=O)CNC2=O)C(=O)N[C@H](CCCNC(=N)N)C(=O)N[C@@H](Cc2c[nH]c3ccccc23)C(=O)N[C@@H](C2CCCC2)C(=O)N1)C(=O)NCCOCCOCCOCCOCCOCCOCCOCCOCCOCCOCCOCCOCCC(=O)NCCOCCOCCOCCOCCOCCOCCOCCOCCOCCOCCOCCOCCC(=O)N[C@@H](CCCCNC(=O)CCN1C(=O)CC(C)C1=O)C(N)=O (some centres unmarked) [Conjugate-4] ({CH2CO}-[2Nal][dR][hCys]GR[dD]W[hCys][dR]W[Gly(cPent)]CGGGGDD-X1; disulfide 3-8; thioether N-12),"blood flow AUC, % of vehicle group mean",[1]; 0.3 mg/kg,263.9%
same,"%, ischemia/nonischemia (blood flow on the last day of measurement)",[1]; 0.3 mg/kg,54.5 ± 10.2%
same,"blood flow AUC, % of vehicle group mean",[1]; 1 mg/kg,346.8%
same,"%, ischemia/nonischemia (blood flow on the last day of measurement)",[1]; 1 mg/kg,76.1 ± 11.2%
N=C(N)NCCC[C@@H]1NC(=O)[C@H](Cc2ccc3ccccc3c2)NC(=O)CSC[C@@H](C(N)=O)NC(=O)[C@H](C2CCCC2)NC(=O)[C@H](Cc2c[nH]c3ccccc23)NC(=O)[C@H](CCCNC(=N)N)NC(=O)[C@@H]2CCSSCC[C@H](NC1=O)C(=O)NCC(=O)N[C@@H](CCNC(=N)N)C(=O)N[C@@H](CC(=O)O)C(=O)N[C@@H](Cc1c[nH]c3ccccc13)C(=O)N2 [Peptide-9] ({CH2CO}-[2Nal]R[hCys]G[Agb]DW[hCys]RW[Gly(cPent)]C-NH2; disulfide 3-8; thioether N-12),"remaining at 4 h, 20 μM",[2],95.8%
same,serum stability (in words),[2],high serum stability; also recorded: higher serum stability
same,"remaining at 4 h, 20 μM",[3],93%
same,"remaining at 4 h, 20 μM",[4],118%
N=C(N)NCCC[C@@H]1NC(=O)CNC(=O)[C@@H]2CCSSCC[C@H](NC(=O)[C@H](Cc3c[nH]c4ccccc34)NC(=O)[C@H](CC(=O)O)NC1=O)C(=O)N[C@@H](CCCNC(=N)N)C(=O)N[C@@H](Cc1c[nH]c3ccccc13)C(=O)N[C@@H](C1CCCC1)C(=O)N[C@H](C(N)=O)CSCC(=O)N[C@@H](Cc1ccc3ccccc3c1)C(=O)N[C@@H](CCCNC(=N)N)C(=O)N2 [Peptide-11] ({CH2CO}-[2Nal]R[hCys]GRDW[hCys]RW[Gly(cPent)]C-NH2; disulfide 3-8; thioether N-12),"remaining at 4 h, 20 μM",[2],88%
same,serum stability (in words),[2],high serum stability
same,"remaining at 4 h, 20 μM",[3],89.9%
same,"remaining at 4 h, 20 μM",[4],105%
CC(C)[C@@H]1NC(=O)[C@H](Cc2c[nH]c3ccccc23)NC(=O)[C@H](CC(N)=O)NC(=O)[C@H](CCNC(=N)N)NC(=O)CNC(=O)[C@H](CO)NC(=O)[C@H](CCCNC(=N)N)NC(=O)[C@H](Cc2ccc3ccccc3c2)NC(=O)CSC[C@@H](C(N)=O)NC(=O)[C@H](C2CCCC2)NC(=O)[C@H](Cc2c[nH]c3ccccc23)NC(=O)[C@H](CCCNC(=N)N)NC1=O [Peptide-115] ({CH2CO}-[2Nal]RSG[Agb]NWVRW[Gly(cPent)]C-NH2; thioether N-12),"remaining at 4 h, 20 μM",[2],64.5%
same,"remaining at 4 h, 20 μM",[3],14.9%
same,"remaining at 4 h, 20 μM",[4],78.2%
CC(C)[C@@H]1NC(=O)[C@H](Cc2c[nH]c3ccccc23)NC(=O)[C@H](CC(=O)O)NC(=O)[C@H](CCNC(=N)N)NC(=O)CNC(=O)[C@H](CO)NC(=O)[C@H](CCCNC(=N)N)NC(=O)[C@H](Cc2ccc3ccccc3c2)NC(=O)CSC[C@@H](C(N)=O)NC(=O)[C@H](C2CCCC2)NC(=O)[C@H](Cc2c[nH]c3ccccc23)NC(=O)[C@H](CCCNC(=N)N)NC1=O [Peptide-119],"remaining at 4 h, 20 μM",[2],70.9%
same,"remaining at 4 h, 20 μM",[3],21.1%
same,"remaining at 4 h, 20 μM",[4],88.5%
N=C(N)NCCC[C@@H]1NC(=O)CNC(=O)[C@@H]2CSSCC[C@H](NC(=O)[C@H](Cc3c[nH]c4ccccc34)NC(=O)[C@H](CC(=O)O)NC1=O)C(=O)N[C@@H](CCCNC(=N)N)C(=O)N[C@@H](Cc1c[nH]c3ccccc13)C(=O)N[C@@H](C1CCCC1)C(=O)N[C@H](C(N)=O)CSCC(=O)N[C@@H](Cc1ccc3ccccc3c1)C(=O)N[C@@H](CCCNC(=N)N)C(=O)N2 [Peptide-126] ({CH2CO}-[2Nal]RCGRDW[hCys]RW[Gly(cPent)]C-NH2; disulfide 3-8; thioether N-12),"remaining at 4 h, 20 μM",[2],98.3%
same,"remaining at 4 h, 20 μM",[3],100%
same,"remaining at 4 h, 20 μM",[4],99.6%
N=C(N)NCCC[C@@H]1NC(=O)CNC(=O)[C@@H]2CCSCSCC[C@H](NC(=O)[C@H](Cc3c[nH]c4ccccc34)NC(=O)[C@H](CC(=O)O)NC1=O)C(=O)N[C@@H](CCCNC(=N)N)C(=O)N[C@@H](Cc1c[nH]c3ccccc13)C(=O)N[C@@H](C1CCCC1)C(=O)N[C@H](C(N)=O)CSCC(=O)N[C@@H](Cc1ccc3ccccc3c1)C(=O)N[C@@H](CCCNC(=N)N)C(=O)N2 [Peptide-127] ({CH2CO}-[2Nal]R[hCys]GRDW[hCys]RW[Gly(cPent)]C-NH2; linker 3-8 via CH2; thioether N-12),"remaining at 4 h, 20 μM",[2],90%
same,"remaining at 4 h, 20 μM",[3],95.1%
same,"remaining at 4 h, 20 μM",[4],97.5%
N=C(N)NCCC[C@@H]1NC(=O)CNC(=O)[C@@H]2CSSC[C@H](NC(=O)[C@H](Cc3c[nH]c4ccccc34)NC(=O)[C@H](CC(=O)O)NC1=O)C(=O)N[C@@H](CCCNC(=N)N)C(=O)N[C@@H](Cc1c[nH]c3ccccc13)C(=O)N[C@@H](C1CCCC1)C(=O)N[C@H](C(N)=O)CSCC(=O)N[C@@H](Cc1ccc3ccccc3c1)C(=O)N[C@@H](CCCNC(=N)N)C(=O)N2 [Peptide-128] ({CH2CO}-[2Nal]RCGRDWCRW[Gly(cPent)]C-NH2; disulfide 3-8; thioether N-12),"remaining at 4 h, 20 μM",[2],98.1%
same,"remaining at 4 h, 20 μM",[3],98.6%
same,"remaining at 4 h, 20 μM",[4],99%
N=C(N)NCCC[C@@H]1NC(=O)CNC(=O)[C@@H]2CSCSC[C@H](NC(=O)[C@H](Cc3c[nH]c4ccccc34)NC(=O)[C@H](CC(=O)O)NC1=O)C(=O)N[C@@H](CCCNC(=N)N)C(=O)N[C@@H](Cc1c[nH]c3ccccc13)C(=O)N[C@@H](C1CCCC1)C(=O)N[C@H](C(N)=O)CSCC(=O)N[C@@H](Cc1ccc3ccccc3c1)C(=O)N[C@@H](CCCNC(=N)N)C(=O)N2 [Peptide-130] ({CH2CO}-[2Nal]RCGRDWCRW[Gly(cPent)]C-NH2; linker 3-8 via CH2; thioether N-12),"remaining at 4 h, 20 μM",[2],98%
same,serum stability (in words),[2],high serum stability
same,"remaining at 4 h, 20 μM",[3],93.5%
same,"remaining at 4 h, 20 μM",[4],88%
N=C(N)NCCC[C@@H]1NC(=O)CNC(=O)[C@@H]2CSCSCC[C@H](NC(=O)[C@H](Cc3c[nH]c4ccccc34)NC(=O)[C@H](CC(=O)O)NC1=O)C(=O)N[C@@H](CCCNC(=N)N)C(=O)N[C@@H](Cc1c[nH]c3ccccc13)C(=O)N[C@@H](C1CCCC1)C(=O)N[C@H](C(N)=O)CSCC(=O)N[C@@H](Cc1ccc3ccccc3c1)C(=O)N[C@@H](CCCNC(=N)N)C(=O)N2 [Peptide-131] ({CH2CO}-[2Nal]RCGRDW[hCys]RW[Gly(cPent)]C-NH2; linker 3-8 via CH2; thioether N-12),"remaining at 4 h, 20 μM",[2],89.2%
same,serum stability (in words),[2],high serum stability
same,"remaining at 4 h, 20 μM",[3],89.2%
same,"remaining at 4 h, 20 μM",[4],101%

# Reference: patent publication US20250228958A1, “TSP1 INHIBITOR” (Daiichi Sankyo Company, Limited, priority 2022, published 2025)
